US8399705B2, “Alkali metal salt of glutamic acid N,N-diacetic acid, a process to prepare such salt, and the use thereof” (Akzo Nobel N.V., priority 2007, dated 2013)

Test: Viscosity by Brookfield DV-II viscometer
Assay type: physicochemical
Details: 50 wt % product, spindle 34, 10 to 40° C.; compared to Na4 GLDA; data in FIG. 1
Procedure: After addition of the KOH (45% sol) and the NaOH (50% sol) solution the products were subjected to evaporation to isolate an alkalimetal salt of glutamic acid-N,N-diacetic acid product having a concentration of 50 wt %.
The viscosity of the alkalimetal salt of glutamic acid-N,N-diacetic acid products prepared in Examples 1a-e was determined using a Brookfield DV-II viscometer with a spindle 34 at a temperature of 10 to 40° C.

Row | viscosity | Compound
1 | significantly lower viscosity | O=C([O-])CC[C@@H](C(=O)[O-])N(CC(=O)[O-])CC(=O)[O-].[K+].[K+].[Na+].[Na+] [Na2K2 GLDA]
2 | significantly lower viscosity | O=C(O)CC[C@@H](C(=O)O)N(CC(=O)O)CC(=O)O.[K].[Na].[Na].[Na] [Na3K GLDA, monopotassium trisodium glutamic acid-N,N-diacetic acid]
